Paper PMC9958137, “The cofactor-dependent folding mechanism of Drosophila cryptochrome revealed by single-molecule pulling experiments” (Nature Communications, 2023)

Columns and labels:
[1] = molecular target: T1, dCRY (Drosophila cryptochrome) (Drosophila melanogaster, UniProt O77059); experiment: single-molecule optical tweezers, ligand-promoted refolding; type: binding; conditions: 0.1 mM ligand, FAD dialysed out; refolding 20 s at 1 pN; pH 8.0; no Mg2+
T1 construct: gene cry; full length, 542 residues; His6, N-terminal Avi tag (biotinylated) and C-terminal ybbR tag (DNA handle) kept; 558 residues with engineered linkers; FAD dialysed out for apo; only genus Drosophila given

[2] = molecular target: T1, dCRY (Drosophila cryptochrome); experiment: single-molecule optical tweezers, FAD titration of fully folded fraction; type: binding; conditions: read-out: Kd,app

T1 sequence (O77059 whole entry): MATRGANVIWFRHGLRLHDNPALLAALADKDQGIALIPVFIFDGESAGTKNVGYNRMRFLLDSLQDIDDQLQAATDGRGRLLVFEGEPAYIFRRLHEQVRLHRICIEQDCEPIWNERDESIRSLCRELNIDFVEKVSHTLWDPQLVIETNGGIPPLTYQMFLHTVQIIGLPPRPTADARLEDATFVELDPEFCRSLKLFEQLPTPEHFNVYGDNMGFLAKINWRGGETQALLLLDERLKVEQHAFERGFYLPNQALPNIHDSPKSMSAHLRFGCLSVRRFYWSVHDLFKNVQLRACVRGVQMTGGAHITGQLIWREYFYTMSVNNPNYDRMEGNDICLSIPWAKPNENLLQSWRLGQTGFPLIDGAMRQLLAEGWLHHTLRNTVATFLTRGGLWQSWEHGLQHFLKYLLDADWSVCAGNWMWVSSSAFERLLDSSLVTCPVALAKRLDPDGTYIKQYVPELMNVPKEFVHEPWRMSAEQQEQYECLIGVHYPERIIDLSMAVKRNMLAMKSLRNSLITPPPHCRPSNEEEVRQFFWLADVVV

Structure (SMILES)	% fully folded events at 0.1 mM [1] [%]	Kd [2] [nM]
Cc1cc2nc3c(=O)[nH]c(=O)nc-3n(C[C@H](O)[C@H](O)[C@H](O)COP(=O)(O)O)c2cc1C [FMN]	84	
Nc1ncnc2c1ncn2[C@@H]1O[C@H](CO)[C@@H](O)[C@H]1O [adenosine]	20	
Cc1cc2nc3c(=O)[nH]c(=O)nc-3n(C[C@H](O)[C@H](O)[C@H](O)CO)c2cc1C [riboflavin]	39	
Nc1ncnc2c1ncn2[C@@H]1O[C@H](COP(=O)(O)OP(=O)(O)O)[C@@H](O)[C@H]1O [ADP]	9	
Nc1ncnc2c1ncn2[C@@H]1O[C@H](COP(=O)(O)O)[C@@H](O)[C@H]1O [AMP]	24	
Cc1cc2nc3c(=O)[nH]c(=O)nc-3n(C[C@H](O)[C@H](O)[C@H](O)COP(=O)(O)OP(=O)(O)OC[C@H]3O[C@@H](n4cnc5c(N)ncnc54)[C@H](O)[C@@H]3O)c2cc1C [FAD]		0.11 ± 0.01
